# Data published in US20100166851A1, “Composition having lipolytic activity, production method thereof and use of the composition” (NUTRACEUTIC ET BUSINESS CONSULTING, priority 2007, published 2010).
# System: human adipocytes
# Assay: release of Not Esterified Fatty Acids (NEFA) by human adipocytes in suspension (ex-vivo lipolysis)
# Type: cell-based
# Conditions: for NEFA: human adipocytes, 2 hours at 37° C., n=3; for % of the control: NEFA released, 2 hours
# Protocol: This experiment has been conducted on human adipocytes isolated from an abdominal plasty of a donor. […] To 540 uL of a suspension of adipocytes in a test medium milieu have been added 60 μL of compound to be tested, and the mixtures have been incubated at 37° C., under stirring, for 2 hours. A final concentration of theophylline in the tested mixture of 1 mM was maintained, starting from a stock solution of 10^−2 M in test medium. Likewise, a final concentration of isoproterenol in the tested mixture of 1 μM was maintained, starting from a stock solution of […] in test medium. A final concentration of caffeine in the tested mixture of 0.5 mM was also maintained, starting from a stock solution of 5 mM in test medium. […] Since the composition according to the invention is a powder, it was diluted in DMSO, on the one hand, and in test medium, on the other hand. The stock solution prepared with DMSO was prepared at 10 mg/mL, i.e. 1% (w/v), for a final concentration of the composition according to the invention in solution in DMSO in the tested mixture of 0.01%. […] A control comprising only the adipocytes in test medium was also prepared. A total of 10 doses were prepared from 10 different fractions with the compound added or not. […] The dose was prepared conventionally by means of a NEFA-C measuring kit. The measured data were processed statistically. Intergroup comparisons were carried out through variance analysis (ANOVA) by means of the Dunnet multiple comparison test.
smiles,measurement,setting,value
"Cn1c(=O)c2c(ncn2C)n(C)c1=O [Caffeine, caffeine]",NEFA,0.5 mM,339 µM
same,"release of NEFA, factor with respect to the control","0.5 mM, p<0.01",about 9.5
same,% of the control,0.5 mM,941%
"CC(C)NCC(O)c1ccc(O)c(O)c1 (stereo not drawn) [Isoproterenol, isoproterenol]",NEFA,1.0 μM,377 µM
same,"lipolysis stimulation, factor with respect to the control","1 μM, p<0.01",10
same,% of the control,1.0 μM,1048%
"Cn1c(=O)c2[nH]cnc2n(C)c1=O [Theophylline, theophylline]",NEFA,1.0 mM,381 µM
same,"lipolysis stimulation, factor with respect to the control","1 mM, p<0.01",10
same,% of the control,1.0 mM,1057%
